Data set [1] has as its target T1, purified human topoisomerase I (Homo sapiens, UniProt P11387).
T1 construct: purchased Topogen
T1 sequence (P11387 1-765): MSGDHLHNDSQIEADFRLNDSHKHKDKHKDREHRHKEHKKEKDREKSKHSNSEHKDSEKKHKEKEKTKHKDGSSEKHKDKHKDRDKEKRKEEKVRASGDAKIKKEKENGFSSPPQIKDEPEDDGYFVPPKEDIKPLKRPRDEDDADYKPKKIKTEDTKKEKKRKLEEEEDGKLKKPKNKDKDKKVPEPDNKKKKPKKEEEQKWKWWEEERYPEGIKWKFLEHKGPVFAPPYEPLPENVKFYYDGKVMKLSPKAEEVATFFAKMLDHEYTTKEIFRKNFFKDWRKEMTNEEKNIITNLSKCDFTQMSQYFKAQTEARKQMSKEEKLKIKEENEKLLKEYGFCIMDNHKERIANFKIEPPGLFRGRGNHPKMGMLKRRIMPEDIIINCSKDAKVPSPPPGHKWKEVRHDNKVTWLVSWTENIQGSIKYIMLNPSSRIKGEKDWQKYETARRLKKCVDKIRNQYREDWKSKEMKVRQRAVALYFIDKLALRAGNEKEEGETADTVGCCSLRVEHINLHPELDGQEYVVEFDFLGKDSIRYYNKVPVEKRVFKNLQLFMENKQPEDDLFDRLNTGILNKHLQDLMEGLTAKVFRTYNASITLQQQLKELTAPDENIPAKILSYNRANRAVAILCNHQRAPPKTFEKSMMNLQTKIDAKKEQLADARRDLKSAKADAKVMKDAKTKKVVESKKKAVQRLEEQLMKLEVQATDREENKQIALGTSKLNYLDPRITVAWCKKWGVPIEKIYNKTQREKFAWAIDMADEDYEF
As to the kind of experiment: Topoisomerase I-mediated single strand DNA break induction (in vitro). Format: biochemical. As to conditions: median effect concentration for inducing single-strand breaks in the DNA substrate; read-out: Topo I EC50. The method, boiled down:
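Supercoiled PM2 DNA incubated with compound dilutions and 1000 units purified human topoisomerase I, 30 min at 37° C; stopped with SDS/proteinase K. Products separated on ethidium-stained agarose gel, quantified by densitometry as % single-strand breaks; EC50 interpolated from dose-effect curve.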

In another data set the test system is HCT-116 colon carcinoma. As to the kind of experiment: In vivo antitumor activity, HCT-116 xenograft. On the set-up: species or system Balb/c athymic (nude) female mice. As to conditions: for LCK (gross log cell kill): HT116 sc xenograft in nude mice, at optimal or maximum tolerated dose, CPT-11 run as comparator in same experiment; for MTD (optimal or maximum tolerated dose level tested): HT116 xenograft experiment, nude mice. Here is the method: Compounds: Examples of this invention were administered in an appropriate vehicle such as cremophor/ethanol/water (10%/10%/80%), in normal saline, water/carboxymethylcellulose vehicle.
All compounds were tested at several dose levels, with attempts each time to achieve their maximum tolerated dose (MTD). […] The optimal dose (OD) was the dose producing the best therapeutic effect, and was usually, but not always, synonymous with the MTD.
Tumors: Human tumors (HCT-116 and HT-29 colon carcinomas) were grown as xenografts in Balb/c athymic (nude) female mice. Antitumor assays. All tumors were implanted subcutaneously (sc) as 3-4mm fragments using a 13 gauge trochar. There were generally eight mice per treatment and control group. When treatment was delayed until tumors had obtained a certain size (weight), referred to as a staged tumor experiment (expt.), tumor-bearing mice were selected so that their tumors fell within a limited range of sizes for the particular expt.
Tumors were measured by calipers, and tumor weight calculated by the formula length (mm) times (×) width (mm)^2/2=tumor weight (mg). The median time (in days) to reach a predetermined tumor target size (for example, 500 mg) for untreated, control (C) mice relative to the time to reach the same target size for treated (T) mice, was calculated as a T-C value. T-C values were divided by the tumor volume doubling time (TVDT), and multiplied by 3.32, to yield a gross log cell kill (LCK) value, [i.e., (T-C)/TVDT×3.32=LCK].
A mouse was considered cured if there was no palpable tumor after a period of time equal to 10×TVDT post-reatment (Rx).

The record followed here is patent US20030083271A1, “Topoisomerase I selective cytotoxic sugar derivatives of indolopyrrolocarbazoles” (priority 2001, published 2003).

Marks after values point to notes of the source that are not given here.

In general, EC50 refers to the concentration that produces a half-maximal response. In the case of `O=C1NC(=O)c2c1c1c3cc(F)c(F)cc3sc1c1c2c2cc(F)c(F)cc2n1[C@@H]1O[C@H](CF)C[C@H](O)[C@H]1O` [Example 9, 12-[4,6-Dideoxy-6-fluoro-β-D-glucopyranosyl]-2,3,9,10-tetrafluoro-5H, 13H-benzo[b]thienyl[2,3-a]pyrrolo[3,4-c]carbazole-5,7(6H)-dione], the EC50 in data set [1] was 0.23 µM. Moreover, in the data set with HCT-116 colon carcinoma, the “LCK (gross log cell kill)” value is listed as over 3.4 and the “MTD (optimal or maximum tolerated dose level tested)” value (shortened to “MTD”) was over 22 mpkpi.
As for `O=C1NC(=O)c2c1c1c3cc(F)ccc3[nH]c1c1c2c2cc(F)ccc2n1[C@@H]1O[C@H](CO)[C@@H](F)[C@H](O)[C@H]1O` [Example 24, 12-[4-Deoxy-4-fluoro-β-D-glucopyranosyl]-3,9-difluoro-12,13-dihydro-5H-indolo[2,3-a]pyrrolo[3,4-c]carbazole-5,7(6H)-dione], the EC50 in data set [1] stood at 0.02 µM. Moreover, in the data set with HCT-116 colon carcinoma, the “LCK (gross log cell kill)” value is reported as 1.3 and the “MTD” value was determined as 10 mpkpi.
On to `O=C1NC(=O)c2c1c1c3cc(F)c(F)cc3sc1c1c2c2cc(F)c(F)cc2n1[C@@H]1O[C@H](CF)[C@@H](F)[C@H](O)[C@H]1O` [Example 26, 12-[4,6-Difluoro-4,6-dideoxy-β-D-glucopyranosyl]-2,3,9,10-tetrafluoro-5H, 13H-benzo[b]thienyl[2,3-a]pyrrolo[3,4-c]carbazole-5,7(6H)-dione], for which, in data set [1], the EC50 was determined as 0.13 µM. Besides, in the data set on HCT-116 colon carcinoma, the “LCK (gross log cell kill)” value is over 3.4 and the “MTD” value is reported as over 9 mpkpi.
In the case of `O=C1NC(=O)c2c1c1c3cc(F)ccc3[nH]c1c1c2c2cc(F)ccc2n1[C@@H]1O[C@H](CF)[C@@H](F)[C@H](O)[C@H]1O` [Example 27], the EC50 in data set [1] was 0.15 µM. Further, in the data set on HCT-116 colon carcinoma, the “LCK (gross log cell kill)” value is recorded as >1.4^c and the “MTD” value is 8 mpkpi.
On to `O=C1NC(=O)c2c1c1c3cc(F)c(F)cc3sc1c1c2c2cc(F)c(F)cc2n1[C@@H]1O[C@H](CO)[C@@H](F)[C@H](O)[C@H]1O` [Example 33, 12-[4-Deoxy-4-fluoro-β-D-glucopyranosyl]-2,3,9,10-tetrafluoro-5H,13H-benzo[b]thienyl[2,3-a]pyrrolo[3,4-c]carbazole-5,7(6H)-dione], for which the EC50 in data set [1] was found to be 0.05 µM. In the data set on HCT-116 colon carcinoma, the “LCK (gross log cell kill)” value was 2.3 and the “MTD” value was 10 mpkpi.
